Reference: PMC6476928 (Frontiers in Pharmacology, 2019)
Positions count from the first letter of the chain named.

Key:
Kv4.2 F289A = target: T1, Kv4.2 F289A (Homo sapiens, UniProt Q9NZV8, F289A); experiment: Patch clamp of Kv4.2 mutant F289A in HEK293T cells; format: cell-based
T1 construct: expressed in transfected cells; host or cells: HEK293T
T1 sequence (Q9NZV8 1-630 F289A): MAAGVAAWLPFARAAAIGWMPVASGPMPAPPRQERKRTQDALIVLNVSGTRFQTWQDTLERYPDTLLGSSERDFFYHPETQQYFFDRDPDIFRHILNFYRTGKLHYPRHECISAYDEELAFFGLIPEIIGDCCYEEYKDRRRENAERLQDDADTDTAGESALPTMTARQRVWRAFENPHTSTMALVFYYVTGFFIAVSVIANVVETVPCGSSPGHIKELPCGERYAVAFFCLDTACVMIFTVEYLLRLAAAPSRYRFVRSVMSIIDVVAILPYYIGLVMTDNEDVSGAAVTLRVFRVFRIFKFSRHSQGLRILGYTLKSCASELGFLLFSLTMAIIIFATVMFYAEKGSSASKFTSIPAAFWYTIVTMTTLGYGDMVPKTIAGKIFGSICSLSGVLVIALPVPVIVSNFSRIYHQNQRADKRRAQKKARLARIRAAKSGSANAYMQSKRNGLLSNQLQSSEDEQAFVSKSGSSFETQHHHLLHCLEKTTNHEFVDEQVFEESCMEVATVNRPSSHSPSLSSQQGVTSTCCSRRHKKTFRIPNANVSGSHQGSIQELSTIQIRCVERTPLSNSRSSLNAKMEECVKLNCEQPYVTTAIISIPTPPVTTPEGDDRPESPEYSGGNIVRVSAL
T1 sequence (Q9NS61 1-270 partner): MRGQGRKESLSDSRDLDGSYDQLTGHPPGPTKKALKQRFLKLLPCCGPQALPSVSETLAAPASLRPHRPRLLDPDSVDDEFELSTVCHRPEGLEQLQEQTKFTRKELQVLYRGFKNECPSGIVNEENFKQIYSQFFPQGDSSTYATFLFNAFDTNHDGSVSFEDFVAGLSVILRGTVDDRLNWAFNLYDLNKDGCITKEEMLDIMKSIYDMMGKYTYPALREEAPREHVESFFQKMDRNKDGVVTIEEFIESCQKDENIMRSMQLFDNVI
Description: (§2) Human embryonic kidney cell line (HEK293T) was obtained from Shanghai Institute of Cell Biology, Chinese Academy of Sciences (Shanghai, China) and maintained with 5% CO2 at 37°C in DMEM supplemented with 10% heat-inactivated fetal calf and serum (FBS), penicillin (100 U/ml), and streptomycin (100 μg/ml). The WT/mutant Kv4.2 plasmids were transiently transfected into HEK293T by Lipofectamine^TM 2000 Reagent (Invitrogen), and the KChIP2 subunits were co-transfected with Kv4.2.
(§3) The extracellular buffer and pipette solution for AP, Ito, and Kv4.2 were used as follows.
(§4) Kv4.2 current, The pipette solution contained (mM) 140 KF, 5 ATP-2Na, 1 EGTA, and 10 HEPEs (pH = 7.4). […] The steady-state activation of Kv4.2 was measured with the holding potential −80 mV and applied from −80 mV to 70 mV (10-mV increments). Steady-state inactivation of Kv4.2 channel measured with a series of a 300-ms depolarizing test potential of 10 mV followed a 1000-ms prepulse at potentials ranging from −120 to +70 mV with a 5-mV increment.
(§5) Data were analyzed using the clampfit (Axon) and Origin 9 software programs. […] The steady-state activation relationship was measured using Boltzmann function (f(V) = 1/{1 + exp[−(V−V1/2)/k]}^4). Steady-state inactivation was measured using the Boltzmann function f(V) = 1/{1 + exp[−(V − V1/2)/k]}.

[1] = system: Kv4.2 S1–S2 linker mutants; experiment: Patch clamp of Kv4.2 S1–S2 linker alanine mutants in HEK293T cells; format: cell-based; conditions: all S1–S2 linker mutants, N = 5
Description: (§1) All data points are shown as mean SEM.

kv2.1 = conditions: 5µM, X. laevis oocytes; cited from earlier work
Description: Supplement Data_Sheet_1.docx, table 1: Supplementary Table 1.Activity of spider toxins on Kv2 and Kv4 channel subtypes Activities of spider toxins against different subtypes of Kv2 and Kv4 potassium channels are reported as IC50 (nanomolar) or as percentage of current inhibition at a single dose (nanomolar). Affinity (IC50) measurements | column: kv2.1 || Animal toxins target ion channels, and are thus valuable resources with potential therapeutic applications. The Kv4 subfamily from scorpion ([Maffie et al., 2013]; [Xie et al., 2014]) and spider venom ([Escoubas et al., 2002]; [Ebbinghaus et al., 2004]; [Yuan et al., 2007], [2012]; [DeSimone et al., 2009]) has a rich toxin pharmacology. HaTx, originally isolated from venom of the Chilean rose tarantula (Grammostola spatulata), inhibits Kv4.2 channels effectively, with similar affinity for Kv2.1 ([Swartz and MacKinnon, 1995]; [Swartz, 2007]). Other Kv4 channel inhibitors, Stromatoxin (ScTx1) fr ...

Kv4.2 V285A = target: T2, Kv4.2 V285A (Homo sapiens, UniProt Q9NZV8, V285A); experiment: Patch clamp of Kv4.2 mutant V285A in HEK293T cells; format: cell-based
T2 construct: expressed in transfected cells; host or cells: HEK293T
T2 sequence (Q9NZV8 1-630 V285A): T1 sequence (Q9NZV8 1-630 F289A) with V285A, A289F
T2 sequence (Q9NS61 1-270 partner): T1 sequence (Q9NS61 1-270 partner)
Description: as §2, §3, §4, §5

[2] = system: action potential of NRVMs; experiment: Action potential recording in neonatal rat ventricular myocytes; format: cell-based; conditions: 100 nM JZTX-V
Description: Neonatal rat ventricular myocytes cells were obtained from ventricles of neonatal Sprague–Dawley rats as previously reported ([Sung et al., 2012]; [Yan et al., 2018]). SD rats (Hunan SJA Laboratory Animal Co., Ltd., Changsha, China) were used according to the guidelines of the National Institutes of Health for Care and Use of Laboratory Animals. The experiments were approved by the Animal Care and Use Committee of Hunan Normal University.
The APs, Pipette solution contained (mM) 120 KCl, 1 MgCl2, 10 EGTA, 10 Hepes, and 3 MgATP (pH = 7.4). The extracellular buffer contained (mM) 140 NaCl, 5.4 KCl, 1.3 CaCl2, 0.5 MgCl2, 5 Hepes, and 5.5 glucose (pH = 7.4).
as §1

Kv4.2 L277A = experiment: Patch clamp of Kv4.2 mutant L277A in HEK293T cells; format: cell-based
Description: as §1

## CC[C@H](C)[C@H](NC(=O)[C@@H](NC(=O)[C@H](CCCCN)NC(=O)[C@H](CCCNC(=N)N)NC(=O)[C@@H]1CSSC[C@@H]2NC(=O)[C@H](C)NC(=O)[C@H](CCCNC(=N)N)NC(=O)[C@H](CCCCN)NC(=O)[C@H](CO)NC(=O)[C@H](CC(=O)O)NC(=O)[C@@H]3CSSC[C@H](NC(=O)[C@H](CCCNC(=N)N)NC(=O)[C@H](CC(C)C)NC(=O)CNC(=O)[C@H](CCC(=O)O)NC(=O)[C@H](CSSC[C@H](NC(=O)[C@@H](N)Cc4ccc(O)cc4)C(=O)N[C@@H](CCC(N)=O)C(=O)N[C@@H](CCCCN)C(=O)N[C@@H](Cc4c[nH]c5ccccc45)C(=O)N[C@@H](CCSC)C(=O)N[C@@H](Cc4c[nH]c5ccccc45)C(=O)N[C@@H]([C@@H](C)O)C(=O)N3)NC2=O)C(=O)N[C@@H](CCCCN)C(=O)N[C@@H](CC(C)C)C(=O)N[C@@H](Cc2c[nH]c3ccccc23)C(=O)N1)[C@@H](C)CC)C(=O)O [JZTX-V, Jingzhaotoxin-V]
Kv4.2 F289A
  reduction of sensitivity to the toxin vs WT Kv4.2: ~11 fold
[1]
  JZTX-V binding affinity for Kv4.2 S1–S2 linker alanine mutants: only a slight decrease
kv2.1
  percentage of current inhibition kv2.1: 35% (5µM) O
Kv4.2 V285A
  reduction of sensitivity to the toxin vs WT Kv4.2: ~7 fold
[2]; 1 Hz, N = 5
  APD10 compared with vehicle-treated group: 123.53 ± 4.23%
  APD50 compared with vehicle-treated group: 124.34 ± 3.17%
  APD90 compared with vehicle-treated group: 126.26 ± 3.23%
[2]; N = 5
  effect on APD10–50: did not affect
  effect on APD50–90: did not affect
[2]; control 12 ± 1 ms
  APD10 after treatment: 15 ± 1.7 ms
[2]; control 88 ± 6 ms
  APD50 after treatment: 109 ± 8 ms
[2]; control 245 ± 7 ms
  APD90 after treatment: 309 ± 10 ms
Kv4.2 L277A
  increase of affinity for JZTX-V vs WT Kv4.2: ~20 fold
